The values below come from article PMC9698730 (Molecules, 2022).

Values joined by “and” are separate entries in the source; they are usually repeats but may differ in a detail not shown here. Identical values can stand only once. “Also recorded” adds a separate entry of the source. Like-named read-outs stand apart in the source and are kept apart here.

Experiment [1] addresses T1, NTD wt (Severe acute respiratory syndrome coronavirus 2, UniProt P0DTC9). The format is binding.
The subject of experiment [2] is FL. The format is binding.
The subject of experiment [3] is RNA-FL complex. In kind it is binding, SARS-CoV-2. The conditions noted are these: for competition with RNA / nucleic acids binding to FL: DLS, in words. How it is done: To further address whether the ligands may modify the oligomeric status of the FL protein, we performed dynamic light scattering experiments. […] We then tested whether ligand binding to FL could be competitive with nucleic acids binding.
(§1) The experiments were performed on a Malvern nanosizer apparatus. The temperature was set at 20 °C, and 10 scans with a duration of 10 s each were acquired in duplicate for each time and sample. The size distribution in the intensity of the scattered light was obtained using the Cumulants method from the instrumental software, yielding the hydrodynamic diameter. The N NTD concentration was in the range of 40–60 μM, the FL concentration was in the range of 1 to 10 µM in 20 mM Tris buffer at pH = 7.9 containing 100 mM NaCl. The melting experiments were performed at a heating rate of 1 °C/min over the range 30 °C to 65 °C in sealed disposable cuvettes. The apparent melting temperature, Tm, was determined by the first derivative of the melting curve.

For experiment [4], the system named is viral replication. The conditions noted are these: cited from earlier work.
The test system of experiment [5] is FL. The format is binding, SARS-CoV-2. The conditions noted are these: for Size (nm) Intensity / Size (nm) Volume: pH 7.9.
Experiment [6] concerns DNA-FL complex. Description: Dynamic light scattering, competition with DNA binding to FL. Also noted: species or system SARS-CoV-2. The note with it: for Size, Intensity: percentage in parentheses / Size, Volume: percentage in parentheses / Size (nm) Volume / Size (nm) Intensity: DNA + ligand, 4 µM, FL 4 µM; for Size (nm) Volume: without ligand 15.7 ± 1.2; for Size (nm) Intensity: without ligand 25.3 ± 3.1. Here is the method:
To further address whether the ligands may modify the oligomeric status of the FL protein, we performed dynamic light scattering experiments. FL (2 µM) presented a main peak at 12.0 ± 0.6 nm in volume (14 nm in intensity); the size of the complex decreased to 10.3 and 7.8 ± 0.3 nm upon addition of 2 µM and 6 µM enkephalin, respectively (Figure 6D). […] We then tested whether ligand binding to FL could be competitive with nucleic acids binding.
as §1

Experiment [7] deals with model of reconstituted lung epithelium. The note with it: cited from earlier work.
For experiment [8], the target named is T1, NTD wt. The conditions noted are these: cited from earlier work.
Experiment [9] deals with SARS-CoV-2. The note with it: cited from earlier work.
In experiment [10] the test system is patients hospitalized for mild and moderate COVID-19. The note with it: human, in vivo; cited from earlier work.

As for Dihydrofolate [DHF], in experiment [1] (SPR, NTD, ligand range 0.3–10.0 µM, 20 mM HEPES, 100 mM NaCl, 0.05% Tween), the Kd was ~1 µM and 1 µM. Besides, the “binding to FL by SPR, in words” value in [2] is recorded as “binding of DHF to the full-length protein was smaller”. Also, the “competition with RNA / nucleic acids binding to FL” value in experiment [3] is “consistent with a competition”. Also, the results for the “effect on viral replication” value in [4] (ref [17],[18],[34],[35]) and in [4] (ref [35]) were “decrease viral replication” and “reduction of viral replication”, respectively.
In the case of Leu-enkephalin, in experiment [5], the “Size, Intensity: percentage in parentheses” value (shortened to “Size, Intensity: percentage”) was 12.6 ± 0.6 (31%) 8.7 ± 0.2 (40%); the “Size, Volume: percentage in parentheses” value is 11.3 ± 0.6 (96%) 8.0 ± 0.3 (100%); the “effect on size (oligomeric status) of FL” value is given as “decreased its size as compared to the size of N alone”; the “Size (nm) Intensity” value is 12.6 ± 0.6 (31%) 8.7 ± 0.2 (40%) nm. Moreover, the “Size (nm) Volume” value in experiment [5] is recorded as 11.3 ± 0.6 (96%) 8.0 ± 0.3 (100%) nm. Further, in experiment [3], the “competition with RNA / nucleic acids binding to FL” value is listed as “competitive with nucleic acids binding to FL; also recorded: consistent with a competition”. For the same compound, in experiment [6] (DLS, Figure 6E), the “effect on size of N-DNA complex, in words” value was “the size of the N-DNA complex was reduced”. For the same compound, in experiment [6], the “Size, Intensity: percentage” value is listed as 89%; the “Size, Volume: percentage in parentheses” value turned out to be 99%; the “Size (nm) Volume” value worked out at 9.0 ± 1.7 nm; the “Size (nm) Intensity” value stood at 10.5 ± 1.2 nm.
For the compound tetrahydrofolate [THF], in [4] (ref [35]), the “effect on viral replication” value is reported as “reduction of viral replication”.
Take “RPKPQQF-OH [Substance P (1-7), Substance P (1-7) RPKPQQF-OH]”: in experiment [1], the “binding to NTD by SPR, in words” value is listed as “observed”. For the same compound, the “binding to FL by SPR, in words” value in experiment [2] was “bound the N FL protein as measured by SPR; also recorded: observed”. Also, in [5], the “Size, Intensity: percentage” value was 10.3 ± 0.6 (50%) 8.0 ± 1.0 (76%); the “Size, Volume: percentage in parentheses” value was 9.5 ± 0.6 (98%) 7.2 ± 1.1 (99%); the “effect on size (oligomeric status) of FL” value is recorded as “a larger decrease”; the “Size (nm) Intensity” value is listed as 10.3 ± 0.6 (50%) 8.0 ± 1.0 (76%) nm. The “Size (nm) Volume” value in experiment [5] is listed as 9.5 ± 0.6 (98%) 7.2 ± 1.1 (99%) nm. For the same compound, the “competition with RNA / nucleic acids binding to FL” value in [3] is reported as “competitive with nucleic acids binding to FL; also recorded: consistent with a competition”. Further, in experiment [3] (RNA + ligand, 4 µM, FL 4 µM), the “Size, Intensity: percentage” value was 75% and the “Size, Volume: percentage in parentheses” value came to 97%. Moreover, the “Size (nm) Volume” value in experiment [3] (RNA + ligand, 4 µM, FL 4 µM, without ligand 15.1 ± 1.1) was determined as 11.3 ± 0.6 nm. Also, the “Size (nm) Intensity” value in experiment [3] (RNA + ligand, 4 µM, FL 4 µM, without ligand 21.5 ± 2.0) was determined as 16.1 ± 0.6 nm. In addition, in experiment [6], the “Size, Intensity: percentage” value came to 70%; the “Size, Volume: percentage in parentheses” value was determined as 91%; the “Size (nm) Volume” value stood at 10.1 ± 0.6 nm; the “Size (nm) Intensity” value turned out to be 13.8 ± 0.6 nm.
With `COc1ccc2cc([C@H](C)C(=O)O)ccc2c1` [Naproxen, naproxen], in [5], the “Size, Intensity: percentage” value was 12.2 ± 0.5 (40%) 8.7 ± 0.3 (60%); the “Size, Volume: percentage in parentheses” value was 11.3 ± 0.4 (99%) 8.9 ± 0.3 (96%); the “effect on size (oligomeric status) of FL” value was “the same trend was observed”; the “Size (nm) Intensity” value was 12.2 ± 0.5 (40%) 8.7 ± 0.3 (60%) nm. The “Size (nm) Volume” value in [5] is 11.3 ± 0.4 (99%) 8.9 ± 0.3 (96%) nm. The “effect on viral replication” value in experiment [4] was “decrease viral replication”. Moreover, in [7], the “protection of lung cells against viral injury” value is given as “protected lung cells against viral injury”; the “replication and inflammation in reconstituted lung epithelium” value was “inhibited replication and reduced inflammation”. Moreover, the “binding to N-terminal domain in vitro” value in [8] was “bound to SARS-CoV-2 N-terminal domain (NTD) in vitro”. The “viral load of infected cells” value in experiment [9] was “reduced the viral load of infected cells”.
Turning to Hemin, the “effect on viral replication” value is “reduce viral replication” in experiment [4] (hemin binding to N, ref [32]) and “decrease viral replication” in experiment [4] (ref [17],[18],[34],[35]).
As for `COc1ccc2c(c1)c(CC(=O)O)c(C)n2C(=O)c1ccc(Cl)cc1` [Indomethacin, indomethacin], in [5], the “Size, Intensity: percentage” value was 11.0 ± 0.4 (30%) 6.7 ± 0.3 (60%); the “Size, Volume: percentage in parentheses” value was 10.3 ± 0.5 (100%) 6.3 ± 0.4 (96%); the “effect on size (oligomeric status) of FL” value is recorded as “a larger decrease”; the “Size (nm) Intensity” value was 11.0 ± 0.4 (30%) 6.7 ± 0.3 (60%) nm. The “Size (nm) Volume” value in [5] is 10.3 ± 0.5 (100%) 6.3 ± 0.4 (96%) nm. In addition, the “competition with RNA / nucleic acids binding to FL” value in experiment [3] is given as “consistent with a competition”. Also, the “effect on viral replication” value in [4] (ref [17],[18],[34],[35]) is listed as “decrease viral replication”. For the same compound, in experiment [10], the patient recovery entry is “helped the patients to recover”.

In general, Kd refers to the concentration at which binding is half-saturated. A higher Kd goes with a looser complex.
